# In PubChem BioAssay (NCI):
# “And” between values parts separate entries of the source, which are not always exact repeats. Identical values can stand only once.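 Five compound concentrations were applied to cells in 96-well plates for 48 hours; endpoints were derived by simple linear interpolation of the resulting dose-response curve. Abbreviation: GI50, concentration required for 50% inhibition of growth. Definition used: TGI = concentration required for complete inhibition of growth.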
# Experiments:
# Assay in all cases: NCI tumour cell line growth inhibition, 48 h
# SK-MEL-28 melanoma = test system: SK-MEL-28 melanoma
# NCI-H460 lung = test system: NCI-H460 lung
# OVCAR-4 ovarian = test system: OVCAR-4 ovarian
# SK-MEL-2 melanoma = test system: SK-MEL-2 melanoma
# LOX IMVI melanoma = test system: LOX IMVI melanoma
# RPMI-8226 leukemia = test system: RPMI-8226 leukemia
# U251 CNS = test system: U251 CNS
# K-562 leukemia = test system: K-562 leukemia
# HCT-116 colon = test system: HCT-116 colon
# SNB-75 CNS = test system: SNB-75 CNS
Structure (SMILES),GI50 (SK-MEL-28 melanoma),TGI (SK-MEL-28 melanoma),GI50 (NCI-H460 lung),TGI (NCI-H460 lung),GI50 (OVCAR-4 ovarian),TGI (OVCAR-4 ovarian),GI50 (SK-MEL-2 melanoma),TGI (SK-MEL-2 melanoma),GI50 (LOX IMVI melanoma),TGI (LOX IMVI melanoma),GI50 (RPMI-8226 leukemia),TGI (RPMI-8226 leukemia),GI50 (U251 CNS),TGI (U251 CNS),GI50 (K-562 leukemia),TGI (K-562 leukemia),GI50 (HCT-116 colon),TGI (HCT-116 colon),GI50 (SNB-75 CNS),TGI (SNB-75 CNS)
CC(C)(CO)N=Cc1ccccc1[O-].CC(C)(CO)N=Cc1ccccc1[O-].[Co+2],58.6 µM,> 100 µM,> 100 µM,> 100 µM,71.9 µM,> 100 µM,> 76.5 µM,> 100 µM,40.5 µM,> 63.1 µM,30.2 µM,> 93 µM,74.9 µM,> 100 µM,47.3 µM,> 100 µM,69.8 µM,> 100 µM,> 86.4 µM,> 100 µM
Cc1cc([N+](=O)[O-])c(S(=O)(=O)c2ccccc2)c([N+](=O)[O-])c1,,40.9 µM,,28.2 µM,,24.5 µM,,47.6 µM,,6.51 µM,,45.9 µM,,26.6 µM,,> 100 µM,,22.5 µM,,47.3 µM
CC(=O)Oc1ccc(C2(c3ccc(OC(C)=O)cc3)C(=O)Nc3ccccc32)cc1,35.1 µM and 34.2 µM,> 100 µM,36.6 µM and 46.3 µM,> 100 µM,0.0347 µM and 0.0389 µM,1.42 µM,30.4 µM and 52.8 µM,96.9 µM and > 100 µM,16.8 µM and 13.8 µM,> 100 µM,20.5 µM and 17.6 µM,> 93.2 µM,33.6 µM and 41.4 µM,> 100 µM,17.3 µM and 42.2 µM,> 87.3 µM,34.1 µM and 25.8 µM,> 100 µM,17.2 µM and 23.8 µM,59 µM and > 79.9 µM
Fc1cc(-c2nnc3n2N=C(c2ccc(Cl)cc2Cl)CS3)c(Cl)cc1Cl,40.2 µM,> 100 µM,37.3 µM,> 100 µM,> 100 µM,> 100 µM,> 100 µM,> 100 µM,34.3 µM,> 100 µM,25.3 µM,95.7 µM,38.2 µM,> 100 µM,47.5 µM,> 100 µM,25.4 µM,68.7 µM,> 100 µM,> 100 µM
O=C(O)C1C2C=CC(O2)C1C(=O)Nc1ncccn1 (configuration not stated),,> 100 µM,,> 100 µM,,> 100 µM,,> 100 µM,,> 100 µM,,> 100 µM,,> 100 µM,,> 100 µM,,> 100 µM,,> 100 µM
NS(=O)(=O)c1ccc(NC(=O)c2cccn3c(=O)c4ccccc4nc23)cc1,,> 100 µM,,> 100 µM,,> 100 µM,,,,> 100 µM,,> 100 µM,,> 100 µM,,> 100 µM,,> 100 µM,,> 100 µM
O=C(Nc1cc(S(=O)(=O)c2ccc(Cl)cc2)ccc1Cl)c1cc(I)cc(I)c1O,9.38 µM,24.6 µM,15.2 µM,38.5 µM,17.2 µM,33.5 µM,16.6 µM,39.4 µM,18.2 µM,38.7 µM,0.0515 µM,0.833 µM,15.3 µM,30.8 µM,16 µM,40.9 µM,14.3 µM,27.7 µM,19.7 µM,43.1 µM
C/C(=N\n1c(N)c(C#N)c(-c2ccc(Cl)cc2)c(C#N)c1=O)c1ccncc1,56.8 µM,> 100 µM,22.4 µM,82.5 µM,11.1 µM,43.6 µM,27.8 µM,> 100 µM,35.4 µM,> 100 µM,7.96 µM,69.7 µM,19.6 µM,44.6 µM,> 100 µM,> 100 µM,11.9 µM,31.7 µM,6.11 µM,26.6 µM
O=c1oc2ccc(F)cc2c(=O)n1-c1ccc(Br)cc1F,0.373 µM,2.48 µM,0.574 µM,23.7 µM,1.27 µM,> 42.8 µM,0.46 µM,3.98 µM,0.456 µM,4.24 µM,0.27 µM,1.05 µM,0.786 µM,> 100 µM,0.422 µM,> 100 µM,0.436 µM,2.69 µM,0.252 µM,2.79 µM
C=CC1=CC(C)C[C@]1(O)C(=O)OC (some centres not stated),> 100 µM,,> 100 µM,,> 100 µM,,> 100 µM,,> 100 µM,,,< 0.01 µM,> 100 µM,,> 100 µM,,> 100 µM,,> 100 µM,
C=CC(=O)Nc1cccc(Nc2nc(Nc3ccc(OCCOC(F)F)cc3)ncc2F)c1,7.36 µM,> 100 µM,2.74 µM,35.6 µM,2.66 µM,> 100 µM,1.8 µM,6.82 µM,1.37 µM,4.52 µM,2.48 µM,14.7 µM,2.39 µM,18.9 µM,3.07 µM,> 100 µM,2.69 µM,20 µM,0.848 µM,5 µM
CCCCCCCCCC(=O)Oc1cccc2onc(C)c12,,> 100 µM,,> 100 µM,,> 100 µM,,> 100 µM,,> 100 µM,,> 100 µM,,> 100 µM,,> 100 µM,,> 100 µM,,> 100 µM
Cn1cnc([N+](=O)[O-])c1Sc1nc(N)nc2nc[nH]c12,> 42.5 µM,> 100 µM,2.25 µM,> 100 µM,4.38 µM,> 100 µM,6.16 µM,> 100 µM,0.488 µM,> 100 µM,3.52 µM,> 94 µM,23 µM,> 100 µM,4.2 µM,> 100 µM,2.71 µM,> 100 µM,1.08 µM,> 100 µM
Cc1ccc(/C=C2\CNC/C(=C\c3ccc(C)cc3)C2=O)cc1,,4.05 µM and 4.83 µM,1.21 µM,2.62 µM and 9.51 µM,1.89 µM,4.04 µM and 23.1 µM,1.9 µM,,0.403 µM,1.49 µM and 2.11 µM,,0.69 µM,0.227 µM,0.707 µM and 1.76 µM,1.14 µM,2.68 µM,0.202 µM,0.382 µM and 1.93 µM,8.74 µM,68.1 µM
COc1ccc2cc(-c3c(-c4ccncc4)nc(-c4ccc(S(C)=O)cc4C)n3C)ccc2c1 (configuration not stated),> 25 µM,> 25 µM,24.6 µM,> 25 µM,16.3 µM,> 25 µM,> 25 µM,> 25 µM,16.4 µM,> 25 µM,14.1 µM,> 25 µM,> 23.2 µM,> 25 µM,13.4 µM,> 25 µM,17.9 µM,> 25 µM,> 20.8 µM,> 25 µM
COc1ccc(/C=C(/C(=O)n2cnnn2)c2cc(OC)c(OC)c(OC)c2)cc1,7.37 µM,> 100 µM,3.75 µM,> 100 µM,40.5 µM,> 100 µM,6.64 µM,> 100 µM,3.82 µM,> 100 µM,3.68 µM,> 100 µM,4.22 µM,> 100 µM,2.86 µM,> 100 µM,3.08 µM,> 100 µM,3.34 µM,> 100 µM
CC[P+]1(CC)CCCC1,,> 100 µM,,> 100 µM,,> 100 µM,,> 100 µM,,> 100 µM,,> 100 µM,,> 100 µM,,> 100 µM,,,,> 100 µM
Cc1cc(NC(=O)NC(=O)c2ccccc2N(C)C)ccc1Oc1ncc(Br)cn1,,> 63.1 µM,0.343 µM,55.5 µM,3.45 µM,> 68.1 µM,,> 46.4 µM,0.582 µM,> 63.1 µM,0.517 µM,39.4 µM,0.436 µM,39.8 µM,0.21 µM,27.3 µM,0.389 µM,50.2 µM,0.11 µM,0.428 µM and 0.555 µM
CC1(C)OC(COCCOCCCCCO)C(COCCOCCCCCO)O1 (configuration not stated),,> 100 µM,,> 100 µM,,> 100 µM,,> 100 µM,,> 100 µM,,> 100 µM,,> 100 µM,,> 100 µM,,> 100 µM,,> 100 µM
O=C(O)C1C(C(=O)O)C2(Cl)C(Cl)=C(Cl)C1(Cl)C2(Cl)Cl.[Cd] (configuration not stated),24.1 µM,54.7 µM,3.71 µM,18 µM,14.9 µM,37.5 µM,9.22 µM,26.8 µM,16.8 µM,33.5 µM,6.64 µM,48.4 µM,11.2 µM,24.9 µM,16.3 µM,51.8 µM,17.5 µM,32.5 µM,10.7 µM,26.4 µM
COc1ccc(-c2nc3c(c(=O)n2C(C)=O)C(c2ccc(Cl)cc2)c2sc4c(Cl)cccc4c2O3)cc1 (configuration not stated),1.15 µM,3.39 µM,0.365 µM,1.38 µM,0.845 µM,3.66 µM,0.374 µM,1.69 µM,0.504 µM,1.84 µM,0.529 µM,5.1 µM,0.483 µM,1.76 µM,0.26 µM,2.7 µM,0.341 µM,1.38 µM,0.738 µM,9.98 µM
CC1=C(C(=O)CC(=O)C(=O)NC2C3CC4CC(C3)CC2C4)Sc2ccccc2N1 (configuration not stated),,> 100 µM,,> 100 µM,,> 100 µM,,> 100 µM,,> 100 µM,,> 100 µM,,> 100 µM,,> 100 µM,,> 100 µM,,> 100 µM
COc1cc([C@H]2c3[nH]c4ccccc4c3C[C@H]3COC(=O)N32)cc(OC)c1O,,> 80 µM,,23.2 µM,,> 100 µM,,,,20.8 µM,,11.1 µM,,19 µM,,> 90.3 µM,,51.2 µM,,3.2 µM
CCOCNc1ccc(N2C(=O)/C(=C/c3ccc(N(CC)CC)cc3)N=C2c2ccccc2)cc1,> 100 µM,> 100 µM,2.86 µM,> 100 µM,> 100 µM,> 100 µM,13.7 µM,31 µM,2.48 µM,> 100 µM,2.83 µM,> 100 µM,3.85 µM,33 µM,2.87 µM,> 100 µM,2.4 µM,53.4 µM,16.2 µM,81.2 µM
COC(=O)C1(F)C(=O)NC(=O)NC1OC (configuration not stated),,> 100 µM,,> 100 µM,,> 100 µM,,> 100 µM,,> 100 µM,,> 100 µM,,> 100 µM,,> 100 µM,,94.7 µM,,> 100 µM
O=C1C(c2ccccc2)=C(c2ccccc2)[C@H](c2ccccc2)[C@]1(Cc1nnn(-c2ccc([N+](=O)[O-])cc2)c1N1CCOCC1)c1ccccc1,,> 37.5 µM,,> 37.5 µM,,> 37.5 µM,,,,> 37.5 µM,,> 37.5 µM,,> 37.5 µM,,> 37.5 µM,,> 37.5 µM,,> 37.5 µM
CCC(=O)c1cc([N+](=O)[O-])c(Br)s1,4.17 µM,15.2 µM,6.17 µM,20.9 µM,1.86 µM,3.65 µM,,,1.88 µM,3.46 µM,20.2 µM,89 µM,1.85 µM,4.02 µM,2.16 µM,6.82 µM,1.68 µM,3.14 µM,10.4 µM,22.2 µM
NC(N)=N/N=C/c1c(-c2ccc(Cl)c([N+](=O)[O-])c2)nc2n1CCS2,16.6 µM,35.5 µM,11.6 µM,> 100 µM,14.7 µM,32.8 µM,,,2.43 µM,7.09 µM,3.66 µM,10.9 µM,,,3.96 µM,16.6 µM,1.62 µM,2.97 µM,16 µM,37.9 µM
O=c1[nH]c2cc(Cl)c(Cl)cc2n2cc3ccccc3c12,33 µM,> 100 µM,18.8 µM,32.8 µM,20.3 µM,49.8 µM,24.9 µM,54 µM,17.3 µM,31 µM,22.3 µM,49.2 µM,16.4 µM,30 µM,,,21 µM,35.3 µM,21.6 µM,53.3 µM
Cc1ccccc1NC(=O)C(=O)CC(=O)c1ccc([N+](=O)[O-])cc1,,> 100 µM,,> 100 µM,,> 100 µM,,> 100 µM,,> 100 µM,,> 100 µM,,> 100 µM,,,,> 100 µM,,> 100 µM
